Assays:
COLO 205 = test: 72 hr cell titer Glo proliferation assay, BRAFV600E mutant CRC cell lines; format: cell-based; conditions: Homo sapiens, COLO 205, single agent
Procedure: (§1) Single agent and combinatorial effects on proliferation of inhibitors of RAF (Compound of Formula (I)) and PIK3Ca (Compound X) kinases in seven BRAF-mutant CRC-derived cell lines. All cell lines express the BRAFV600E protein. Cells harboring known or putative activating mutations in the PI3Kα gene are marked with a (*) and cells with PTEN loss marked with a (#). Cell proliferation was measured in 72 hr cell titer Glo™ assays and all results supplied are the result of at least triplicate measurements. Shown are single agent IC50 values for the Compound of Formula (I) and Compound X. Synergy score (SS) measurements as well as the combination index (C150) at the 50% effect level are given for each combination) in Table 6. Interactions were deemed synergistic when SS values were ≥2.0 and CI values were ≤0.5. Interactions were deemed additive/synergistic when either SS values were ≥2.0 but CI values were >0.5 or SS values were <2.0 but CI values were ≤0.5. Interactions where termed additive when SS values were <2.0 and CI values were >0.5. Synergy calls are given in the “effect description” columns.

HT-29 = test: as above; format: cell-based; conditions: Homo sapiens, HT-29 (PI3Kα mutation), single agent
Procedure: as §1

CL-34 = test: as above; format: cell-based; conditions: CL-34, single agent
Procedure: as §1

SW1417 = test: as above; format: cell-based; conditions: Homo sapiens, SW1417, single agent
Procedure: as §1

LS411N = test: as above; format: cell-based; conditions: Homo sapiens, LS-411N, single agent
Procedure: as §1

RKO = test: as above; format: cell-based; conditions: Homo sapiens, RKO (PI3Kα mutation), single agent
Procedure: as §1

SNU-C5 = test: as above; format: cell-based; conditions: SNU-C5 (PI3Kα mutation), single agent
Procedure: as §1

OUMS-23 = test: as above; format: cell-based; conditions: OUMS-23 (PTEN loss), single agent
Procedure: as §1

[1] = test system: HMEX1906 primary melanoma model (HMEX1906-R5); test: Efficacy in HMEX1906-R5 primary melanoma model resistant to Compound of Formula (I); format: in vivo; conditions: PO; Compound C 250 mg/kg qd×21; Compound of Formula (I) 5 mg/kg bid×21
Procedure: Objective: To evaluate the efficacy of the combination of the Compound of Formula (I) and the CDK 4 inhibitor Compound C in the HMEX1906 primary melanoma model that is grown in the presence of and is resistant to 5 mg/kg the Compound of Formula (I) (HMEX1906-R5)
Drug formulation: Compound C is formulated in 0.5% MC/0.5% Tween80 and the Compound of Formula (I) is formulated in 20% PEG300/3% ETPGS.
Tumors are chopped/minced into cell line like suspension (tumors homogenized). 7 mL of matrigel added and 1.5 mL of HBSS. Suspension warmed in palm until Matrigel is thick and implanted with a 18G needle s.c right flank of female nude mice.
The mice were assigned to the following groups at 18 days post implant with an average tumor volume of 266 mm^3 and average body weight of 25 grams.
Groups: 10 mice/group, route PO, dose volume 0.2 mL
Group 1: Vehicle, 0 mg/kg bid×14
Group 2: Compound C, 250 mg/kg qd×21
Group 3: Compound of Formula (I), 5 mg/kg bid×21
Group 4: Compound C 250 mg/kg qd×21+Compound of Formula (I) 5 mg/kg bid×21

[2] = test system: A-375 cells expressing truncated p61-BRAFV600E; test: ATP-based CTG (Cell Titer Glo) cell viability assay, 72 h; conditions: Homo sapiens, A-375 p61 BRafV600E, single agent
Procedure: (§2) Compound stocks are prepared in DMSO at a final concentration of 10 mM.
(§3) A-375 and WM-266-4 cells were purchased from American Type Culture Collection (ATCC). The A-375 cells were cultured in DMEM medium (ATCC) and the WM-266-4 cells were cultured in EMEM medium (ATCC) both supplemented with 10% fetal bovine serum (Gibco) and incubated at 37° C./5% CO2. The cell lines engineered to express commonly occurring alleles indicative of resistance were acquired from Novartis-Emeryville. These resistant models include, A-375 cells expressing mutant MEK1P124L, truncated p61-BRAFV600E, or mutant NRASQ61K, and WM-266-4 cells expressing mutant MEK1C121S, truncated p61-BRAFV600E, or mutant NRASQ61K. These cells were cultured in the appropriate parental medium with selection marker G418 and in the presence of 5 uM LFE158 (MEK mutants) or LIH720 (truncated p61-BRAFV600E).
(§4) For screening, cells were seeded in 80 ul of medium in 384-well plates (Thermo Scientific, cat#4332) at 500 (A-375) or 750 (WM-266-4) cell densities per well using a MultiDrop Combi (Thermo-Fisher) with an 8-channel standard cassette. To promote an even distribution of cells across the entire well, cells were briefly centrifuged at 1000 RPM and incubated at room temperature 30 minutes. All plates were incubated at 37° C., 5% CO2 for 24 h prior to compound addition. Compound stock was freshly prepared in the appropriate culture medium, and added using a PAA robot equipped with a 200n1 pin tool. In a minimum of three replicate wells, single agent and combination effects after 72 hours, were assessed by both quantification of cellular ATP levels via Cell Titer Glo (Promega) according to the manufacturer's protocol and by microscopy imaging. For imaging, cells were fixed to the plates and permeabilized with a solution of 10% PFA, 0.3% TX-100 in PBS via a WellMate dispenser with controlled dispensing speeds. Cell nuclei were stained with Hoechst 33342 (H3570, Invitrogen), and all necessary washing steps were performed by a BioTek washer. […]

[3] = test system: WM-266-4 cells expressing mutant NRASQ61K; test: as above; conditions: Homo sapiens, WM-266-4 NRASQ61K, single agent
Procedure: as §2, §3, §4

[4] = test system: WM-266-4 cells expressing truncated p61-BRAFV600E; test: as above; conditions: Homo sapiens, WM-266-4 p61 BRafV600E, single agent
Procedure: as §2, §3, §4

## COC(=O)N[C@@H](C)CNc1nccc(-c2cn(C(C)C)nc2-c2cc(Cl)cc(NS(C)(=O)=O)c2F)n1 [Compound of Formula (I)]
COLO 205
  IC50: 5 nM
HT-29
  IC50: 49 nM
CL-34
  IC50: 30 nM
SW1417
  IC50: 235 nM
LS411N
  IC50: 18 nM
RKO
  IC50: 1960 nM
SNU-C5
  IC50: > 2700 nM
OUMS-23
  IC50: > 2700 nM
[1]
  Mean change of body weight: 3.5 ± 1.1 % ± SEM
  Mean change of tumor volume: 807 ± 106 mm3 ± SEM
  Mean change of tumor volume vs control (T/C): 39%
  Survival (Survivors/Total): 10/10
[2]
  IC50: 576 nM
[3]
  IC50: 1120 nM
[4]
  IC50: 906 nM
